The target in data set [1] is T1, mouse 11β-HSD1 (Mus musculus, UniProt P50172).
T1 construct: the full-length cDNAs of human or marine 11β-HSD1 and 11β-HSD2 were isolated from the cDNA libraries; made in house; host or cells: HEK-293 (stably transfected, pcDNA3); microsomal fraction
The data set can be described thus: Inhibition of mouse 11β-HSD1, scintillation proximity assay (SPA) with microsomes from transfected HEK-293 cells. The data set is classed as biochemical. To be noted: for IC50: microsomes, NADPH, [3H]cortisone, n = 2; for Mouse HSD2/HSD1: selectivity ratio IC50 mouse 11β-HSD2 / mouse 11β-HSD1. The source says: (§1) Glucocorticoid hormones play important roles in many biological and physiological processes, including regulation of energy metabolism; inflammatory, immune and stress responses; and cardiovascular homeostasis. The action of glucocorticoid on target tissue is not inevitable dependent on the circulating levels, but is regulated in a tissue-specific manner by the 11β-hydroxysteroid dehydrogenase enzymes (11β-HSD1 and 11β-HSD2), which catalyze the interconversion of active 11-hydroxyglucocorticoids (cortisol in human and corticosterone in rodent) and their respective inert 11-keto forms (cortisone in human and 11-dehyfrocorticosterone in rodent). […] 11β-HSD2 is predominantly expressed in aldosterone target cells such as kidney and colon, where it catalyses the inactivation of glucocorticoids, thereby preventing excessive activation of the mineralocorticoid receptor and sequelae including sodium retention, hypokalemia, and hypertension. We tested the inhibitory effect of compounds on both human and mouse 11β-HSD1 and 11β-HSD2. All tests were done duplicate with glycyrrhizininc acid (human and mouse 11β-HSD1, human 11β-HSD2) and carbenoxolone (mouse 11β-HSD2) as positive control. IC50 (X […] S.D., n = 2) values were calculated by using Prism Version 4 (GraphPad Software, San Diego, CA, USA.).
(§2) Inhibition of compounds on human or mouse 11β-HSD1 and 11β-HSD2 enzymatic activities were determined by the scintillation proxitimity assay (SPA) using microsomes containing 11β-HSD1 or 11β-HSD2 according to the previous studies. Briefly the full-length cDNAs of human or marine 11β-HSD1 and 11β-HSD2 were isolated from the cDNA libraries provided by NIH Mammalian Gene Collection and cloned into pcDNA3 expression vector. HEK-293 cells were transfected with the pcDNA3-dericed expression plasmid and selected by cultivation in the presence of 700 μg/mL of G418. The microsomal fraction overexpressing 11β-HSD1 or 11β-HSD2 was prepared from the HEK-293 cells stable transfected with either 11β-HSD1 or 11β-HSD2 and used as the enzyme source for SPA. Microsomes containing human or mouse 11β-HSD1 was incubated with NADPH and [3H]cortisone, then the product, [3H]cortisol was specifically captured by a monoclonal antibody coupled to protein A-coated SPA beads. The 11β-HSD2 screening was performed by incubating 11β-HSD2 microsomes with [3H]cortisol and NAD^+ and monitoring substrate disappearance. IC50 (X ± S.D., n = 2) values were calculated by using Prism Version 4 (GraphPad Software, San Diego, CA, USA.) with glycyrrhizininc acid and carbenoxolone as positive control.

The target in data set [2] is T2, mouse 11β-HSD2 (Mus musculus, UniProt P51661).
T2 construct: the full-length cDNAs of human or marine 11β-HSD1 and 11β-HSD2 were isolated from the cDNA libraries; made in house; host or cells: HEK-293 (stably transfected, pcDNA3); microsomal fraction
T2 sequence (P51661 1-386): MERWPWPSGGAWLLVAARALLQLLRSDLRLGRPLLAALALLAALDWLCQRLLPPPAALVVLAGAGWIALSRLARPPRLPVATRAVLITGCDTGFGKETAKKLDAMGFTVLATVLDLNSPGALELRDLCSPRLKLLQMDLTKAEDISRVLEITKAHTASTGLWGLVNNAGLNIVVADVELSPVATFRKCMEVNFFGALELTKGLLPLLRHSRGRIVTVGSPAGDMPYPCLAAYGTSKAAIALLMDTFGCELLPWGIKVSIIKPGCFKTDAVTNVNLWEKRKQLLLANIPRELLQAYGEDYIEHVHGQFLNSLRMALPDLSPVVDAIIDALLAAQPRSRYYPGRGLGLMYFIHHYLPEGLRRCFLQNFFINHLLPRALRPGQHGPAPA
The data set can be described thus: Inhibition of mouse 11β-HSD2, SPA with microsomes from transfected HEK-293 cells. In kind it is biochemical. Conditions: [3H]cortisol, NAD+, n = 2.
Description: as §1, §2

In data set [3] the target is T3, human 11β-HSD1 (Homo sapiens, UniProt P28845).
T3 construct: the full-length cDNAs of human or marine 11β-HSD1 and 11β-HSD2 were isolated from the cDNA libraries; made in house; host or cells: HEK-293 (stably transfected, pcDNA3); microsomal fraction
As to the kind of experiment: Inhibition of human 11β-HSD1, SPA with microsomes from transfected HEK-293 cells. In kind it is biochemical. Conditions: for IC50: microsomes, NADPH, [3H]cortisone, n = 2; for Human HSD2/HSD1: selectivity ratio IC50 human 11β-HSD2 / human 11β-HSD1.
Description: as §1, §2

The target of data set [4] is T4, human 11β-HSD2 (Homo sapiens, UniProt P80365).
T4 construct: the full-length cDNAs of human or marine 11β-HSD1 and 11β-HSD2 were isolated from the cDNA libraries; made in house; host or cells: HEK-293 (stably transfected, pcDNA3); microsomal fraction
T4 sequence (P80365 1-405): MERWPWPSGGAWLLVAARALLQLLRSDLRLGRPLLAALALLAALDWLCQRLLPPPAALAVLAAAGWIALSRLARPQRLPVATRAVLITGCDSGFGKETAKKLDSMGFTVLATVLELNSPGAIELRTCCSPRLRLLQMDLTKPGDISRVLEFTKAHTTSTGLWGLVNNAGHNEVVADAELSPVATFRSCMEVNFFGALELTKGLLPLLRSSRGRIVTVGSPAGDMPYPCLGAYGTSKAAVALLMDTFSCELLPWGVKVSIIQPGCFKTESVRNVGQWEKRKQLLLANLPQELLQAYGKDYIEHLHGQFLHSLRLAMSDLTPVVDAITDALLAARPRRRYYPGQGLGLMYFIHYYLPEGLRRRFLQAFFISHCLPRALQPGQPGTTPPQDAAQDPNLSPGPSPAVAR
The data set can be described thus: Inhibition of human 11β-HSD2, SPA with microsomes from transfected HEK-293 cells. In kind it is biochemical. To be noted: [3H]cortisol, NAD+, n = 2.
Description: as §1, §2

As usually defined, the IC50 is the concentration needed to halve the response being measured. The low end stands for higher potency, the high end for lower potency. The term melting point denotes the temperature of the solid-liquid transition.

T1 sequence (P50172 whole entry): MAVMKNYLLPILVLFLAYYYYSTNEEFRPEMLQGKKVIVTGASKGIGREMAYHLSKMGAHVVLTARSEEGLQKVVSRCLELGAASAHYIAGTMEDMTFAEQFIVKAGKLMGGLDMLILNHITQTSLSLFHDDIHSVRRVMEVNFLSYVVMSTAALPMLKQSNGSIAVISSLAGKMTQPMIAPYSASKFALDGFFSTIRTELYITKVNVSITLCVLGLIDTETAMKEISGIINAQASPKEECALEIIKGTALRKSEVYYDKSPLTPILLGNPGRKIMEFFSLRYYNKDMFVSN
T3 sequence (P28845 whole entry): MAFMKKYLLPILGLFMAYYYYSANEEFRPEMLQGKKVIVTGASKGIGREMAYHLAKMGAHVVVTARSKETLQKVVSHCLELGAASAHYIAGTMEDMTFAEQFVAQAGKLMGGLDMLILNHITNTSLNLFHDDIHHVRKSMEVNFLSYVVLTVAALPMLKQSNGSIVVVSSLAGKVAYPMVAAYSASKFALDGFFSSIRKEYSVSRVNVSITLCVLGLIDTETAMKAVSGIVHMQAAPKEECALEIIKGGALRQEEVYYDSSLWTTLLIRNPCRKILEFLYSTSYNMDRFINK

As for `C=C(CC[C@](C)(O)[C@@H]1CC[C@]2(C)C3CCC4C(C)(C)[C@@H](O)CC[C@]4(C)C3CC[C@@]12C)C(C)C` (stereo partly drawn) [Compound 1, Euphane-3β,20-dihydroxy-24-ene], the IC50 in data set [1] was 0.0784 µM; in data set [2], greater than 1000 µM; in data set [3], 0.0349 µM; in data set [4], 8.18 µM. For the same compound, in data set [1], the “Mouse HSD2/HSD1” value is given as greater than 12748. Besides, the “Human HSD2/HSD1” value in data set [3] is recorded as 234.6.

Turning to `CC(C)=CCC[C@@H](C)[C@@H]1CC[C@]2(C)C(=O)[C@]3(CC[C@@]12C)[C@@H](O)CC1C(C)(C)[C@@H](O)CC[C@@]13C` (stereo partly shown) [Compound 2, Kansuinone], the IC50 in data set [1] was 1.08 µM; in data set [2], greater than 1000 µM; in data set [3], 1.11 µM; in data set [4] it was 2.63 µM. For the same compound, in data set [1], the “Mouse HSD2/HSD1” value is greater than 928. For the same compound, the “Human HSD2/HSD1” value in data set [3] is recorded as 2.35.

Consider `CC(C)=CCC[C@@H](C)[C@@H]1CC[C@]2(C)C3=C(CC[C@@]12C)[C@@]1(C)CC[C@H](O)C(C)(C)[C@@H]1CC3` [Compound 3, Euphol], for which the IC50 in data set [1] was 0.0805 µM; in data set [2], greater than 1000 µM; in data set [3], 0.0161 µM; in data set [4], 0.395 µM. Further, in data set [1], the “Mouse HSD2/HSD1” value is listed as greater than 12419. Besides, the “Human HSD2/HSD1” value in data set [3] is 24.6.

On to `CC(C)=CCCC(C)C1CCC2(C)C3=C(CCC12C)C1(C)CCC(O)C(C)(C)C1CC3=O` (stereo not shown) [Compound 4, Kansenone], for which the IC50 in data set [1] was 0.0134 µM; in data set [2], greater than 1000 µM; in data set [3], 0.00281 µM; in data set [4] it was 0.107 µM. Also, the “Mouse HSD2/HSD1” value in data set [1] is recorded as greater than 74850. In addition, the “Human HSD2/HSD1” value in data set [3] amounted to 38.

In the case of `C=C(C)[C@@H](O)CC[C@@H](C)[C@@H]1CC[C@]2(C)C3=C(CC[C@@]12C)[C@@]1(C)CC[C@H](O)C(C)(C)C1CC3` (stereo partly drawn) [Compound 5, (24R)-Eupha-8,25-diene-3β,24-diol], the IC50 in data set [1] is 0.0495 µM; in data set [2] it was greater than 1000 µM; in data set [3] it was 0.0265 µM; in data set [4], 1.69 µM. In addition, the “Mouse HSD2/HSD1” value in data set [1] is greater than 20218. Moreover, the “Human HSD2/HSD1” value in data set [3] is on record as 63.7.

On to `C[C@H](C/C=C/C(C)(C)O)[C@@H]1CC[C@]2(C)C3=C(CC[C@@]12C)[C@@]1(C)CC[C@H](O)C(C)(C)C1CC3` (stereo partly drawn) [Compound 6, (20R,23E)-Eupha-8,23-diene-3β,25-diol], for which the melting point was 132 to 133 °C. Besides, in data set [1], it took 0.295 µM to reach half-maximal inhibition (IC50) and the “Mouse HSD2/HSD1” value is listed as greater than 3393. Further, the IC50 in data set [2] was greater than 1000 µM. Moreover, in data set [3], 0.016 µM corresponded to half-maximal inhibition (IC50) and the “Human HSD2/HSD1” value is 41.7. In data set [4], this compound displayed a half-inhibitory concentration (IC50) of 0.666 µM.

Values taken from publication PMC6268726, “Inhibition of 11β-HSD1 by Tetracyclic Triterpenoids from Euphorbia kansui” (Molecules, 2012).
